Test results published in EP0359821A1, “METHOD OF STERILIZING PLANT ANTHERS” (priority 1988, dated 1989).

Experiments:
[1] = test system: Diploider Roggen Sorte Gibrid 1864/74; assay: Field trial of gametocidal activity, diploid rye Gibrid 1864/74; conditions: 1% aqueous emulsion, 10 kg/ha; for Anzahl von Körnern der Ähre bei freier Bestäubung / Anzahl von Körnern der Ähre im Isolator / Prozentsatz der Sterilität: V. period; for Prozentsatz des Ansetzens bei freier Bestäubung: control = 100
[2] = test system: Tetraploider Roggen Sorte Belta; assay: Field trial of gametocidal activity, tetraploid rye Belta; assay type: in vivo; conditions: 1% aqueous emulsion, 10 kg/ha
[3] = in vivo; conditions: mouse
[4] = test system: Tritikale Sorte PRAG I09; assay: Field trial of gametocidal activity, triticale; assay type: in vivo; conditions: 1% aqueous emulsion, 12 kg/ha
From the text: (§1) Bei Weizen und Tritikale werden Einzelisolatoren verwendet.
Pflanzen von Tritikale Sorte PRAG I09 werden in der V. und VI.
Der Verbrauch an Sterilisationsmittel beträgt 12 kg/ha.

[5] = test system: Diploider Roggen Sorte Chulpan; assay: Field trial of gametocidal activity, diploid rye Chulpan; assay type: in vivo; conditions: single compounds, 1% aqueous emulsion, 10 kg/ha
From the text: as §1
Pflanzen von diploidem Roggen Sorte Chulpan werden in der V. oder VI.
Der Verbrauch an Sterilisationsmitteln beträgt 10 kg/ha.

[6] = test system: Hirse Sorte Mironovskoe 94; assay: Field trial of gametocidal activity, millet Mironovskoe 94; assay type: in vivo; conditions: 1% aqueous emulsion, 10 kg/ha; for Anzahl von Körnern der Rispe bei freier Bestäubung / Anzahl von Körnern der Rispe im Isolator / percent pollen sterility at 10000 g/ha: V. or VI. period; for percent pollen sterility at 10000 g/ha: read-out: Prozentsatz der Sterilität; for response vs control in vivo at 10000 g/ha: control = 100, read-out: Prozentsatz des Ansetzens bei freier Bestäubung
[7] = test system: Winterweizens Sorte Mironovskaya 808; assay: Field trial of gametocidal activity (anther sterilisation), winter wheat; assay type: in vivo, Weizen; conditions: 2% aqueous emulsion, 20 kg/ha; for response vs control in vivo at 20000 g/ha: control = 100, read-out: Prozentsatz des Ansetzens bei freier Bestäubung
[8] = test system: Hirse Sorte K-9693 Kormovoe 1; assay: Field trial of gametocidal activity, millet K-9693 Kormovoe 1; conditions: 1% aqueous emulsion, 10 kg/ha
[9] = test system: Sommerweizen Sorte Moskovskaya 35; assay: Field trial of gametocidal activity, spring wheat; assay type: in vivo, Weizen; conditions: 1% aqueous emulsion; for Anzahl von Körnern der Ähre bei freier Bestäubung / Anzahl von Körnern der Ähre im Isolator / percent sterility at 10000 g/ha / response vs control in vivo at 10000 g/ha: 10 kg/ha; for Anzahl von Körnern der Ähre bei freier Bestäubung / Anzahl von Körnern der Ähre im Isolator / percent sterility at 10000 g/ha: V. period; for percent sterility at 10000 g/ha: read-out: Prozentsatz der Sterilität
[10] = test system: Diploider Roggen Sorte Kharkovskaya 55; assay: Field trial of gametocidal activity, diploid rye Kharkovskaya 55; conditions: 1% aqueous emulsion, 6 kg/ha; for Anzahl von Körnern der Ähre bei freier Bestäubung / Anzahl von Körnern der Ähre im Isolator / Prozentsatz der Sterilität: V. and VI. periods; for Prozentsatz des Ansetzens bei freier Bestäubung: control = 100
[11] = test system: Tetraploider Roggen Sorte Ukrainskaya tetra; assay: Field trial of gametocidal activity, tetraploid rye Ukrainskaya tetra; assay type: in vivo; conditions: 1% aqueous emulsion, 10 kg/ha; for Prozentsatz des Ansetzens bei freier Bestäubung: control = 100
[12] = control = 100, read-out: Prozentsatz des Ansetzens bei freier Bestäubung
[13] = V. or VI. period of organogenesis

Compound | Anzahl von Körnern der Ähre bei freier Bestäubung [1] | Anzahl von Körnern der Ähre im Isolator [1] | Prozentsatz der Sterilität [1] [%] | Prozentsatz des Ansetzens bei freier Bestäubung [1] | LD50 ([3]; LD50, weisse Mäuse) [mg/kg] | Anzahl von Körnern der Rispe bei freier Bestäubung [6] | Anzahl von Körnern der Rispe im Isolator [6] | percent pollen sterility at 10000 g/ha [6] [%] | response vs control in vivo at 10000 g/ha [6] [%] | Anzahl von Körnern der Ähre bei freier Bestäubung [7, 13] | Anzahl von Körnern der Ähre im Isolator [7, 13] | response vs control in vivo at 20000 g/ha [7] [%] | Anzahl von Körnern der Ähre bei freier Bestäubung [9] | Anzahl von Körnern der Ähre im Isolator [9] | percent sterility at 10000 g/ha [9] [%] | response vs control in vivo at 10000 g/ha [9, 12] [%] | Anzahl von Körnern der Ähre bei freier Bestäubung [10] | Anzahl von Körnern der Ähre im Isolator [10] | Prozentsatz der Sterilität [10] | Prozentsatz des Ansetzens bei freier Bestäubung [10] | also measured
OCCOc1ccc(F)cc1 [Beispiel 2] | 42,0 | 0,0 | 100 | 87,9% | 350 | 311,4 | 0,0 | 100 | 82 | 27,4 | 0,0 | 67.7 |  |  |  |  |  |  |  |  | Anzahl von Körnern der Ähre im Isolator ([2]; V. or VI. period): 0,0; response vs control in vivo at 10000 g/ha [2, 12]: 92.8%; Anzahl von Körnern der Ähre bei freier Bestäubung ([4]; V. and VI. period): 62,3; Anzahl von Körnern der Ähre im Isolator ([4]; V. and VI. period): 0,0; Prozentsatz des Ansetzens bei freier Bestäubung ([4]; control = 100): 90,3%; Anzahl von Körnern der Ähre bei freier Bestäubung ([5]; Chulpan, V. or VI. period): 48,2; Anzahl von Körnern der Ähre im Isolator ([5]; Chulpan, V. or VI. period): 0,0; percent sterility at 10000 g/ha ([5]; Chulpan, V. or VI. period, read-out: Prozentsatz der Sterilität): 100%; response vs control in vivo at 10000 g/ha ([5]; read-out: Prozentsatz des Ansetzens bei freier Bestäubung, Chulpan, control = 100): 85%; Anzahl von Körnern der Rispe bei freier Bestäubung ([8]; V. or VI. period): 128,7; Anzahl von Körnern der Rispe im Isolator ([8]; V. or VI. period): 0,0; Prozentsatz der Sterilität ([8]; V. or VI. period): 100%; Prozentsatz des Ansetzens bei freier Bestäubung ([8]; control = 100): 87,7%
OCC(O)COc1ccc(F)cc1 (centres unmarked) [Beispiel 4] | 42,8 | 0,0 | 100 | 88,2% | 400 to 600 |  |  |  |  | 30,6 | 0,0 | 75.4 | 25,9 | 0,4 | 98.6 |  |  |  |  |  | response vs control in vivo [9, 12]: 94.2%
OCC(O)COc1ccc(Cl)cc1Cl (centres unmarked) [Beispiel 6, 3-(2',4'-Dichlorphenoxy)-propandiol-I,2] |  |  |  |  |  |  |  |  |  | 35,0 | 0,8 | 86.4 | 26,0 | 0,1 | 99.9 | 94.5 | 41,6 | 0,0 | 100% | 90,2% | percent sterility at 20000 g/ha ([7]; V. or VI. period of organogenesis, read-out: Prozentsatz der Sterilität): 97.9%
O=C(O)c1cc(Br)ccc1O [Beispiel 18, Äthanolaminsalz der 5-Bromsalizylsäure] |  |  |  |  |  | 320,7 | 0,0 | 100 | 84.5 |  |  |  | 27,9 | 1,8 | 93.4 | 102 |  |  |  |  | Prozentsatz der Sterilität ([11]; V. or VI. period): 99,8%; Prozentsatz des Ansetzens bei freier Bestäubung [11]: 94,7%
O=C(O)c1ccccc1 [Beispiel 31, Äthanolaminsalz der Benzoesäure] |  |  |  |  |  |  |  |  |  |  |  |  |  |  |  |  | 43,7 | 0,9 | 97,9% | 96,9% | LD50 [3]: 4100 mg/kg; Anzahl von Körnern der Ähre bei freier Bestäubung ([11]; V. or VI. period): 44,0; Anzahl von Körnern der Ähre im Isolator ([11]; V. or VI. period): 0,8; Prozentsatz der Sterilität ([11]; V. or VI. period): 98,2%; Prozentsatz des Ansetzens bei freier Bestäubung [11]: 99,5%
